Results as given in patent publication US20250034116A1, “1,4-DIHETEROCYCLIC SUBSTITUTED AROMATIC RING OR AROMATIC HETEROCYCLIC COMPOUND AND USE THEREOF” (BeBetter Med Inc., priority 2022, published 2025).
Like-named read-outs stand apart in the source and are kept apart here.

Key:
[1] = system: CYP enzymes in human liver microsomes (HLM); experiment: Inhibition of 20-HETE production in human liver microsomes (HLM); assay type: biochemical; settings: 500 nM
How it was run: (§1)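 LC-MS/MS read-out of 20-HETE formation, expressed as activity relative to no-inhibitor control and fitted to a Hill equation for IC50; percent inhibition also given at 1000, 500 or 100 nM. Enzyme sources: recombinant CYP4F2, recombinant CYP4A11, or human or mouse liver microsomes. Each is combined with compound and substrate (400 μM solution) and warmed 10 min at 37 °C, then incubated 25 min at 37 °C after adding NADPH (6 mM solution).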

[2] = system: diet-induced obesity (DIO) mouse model; experiment: Experiment 1: compound 1, weight loss and blood glucose lowering in DIO mouse model; assay type: in vivo, Male C57BL/6J mice
Description: Experiment 1 was to investigate the effects of compound 1 on weight loss and blood glucose lowering in a diet-induced obesity (DIO) mouse model. Male C57BL/6J mice were purchased from Zhuhai BST Biotechnology Co., Ltd. and housed in a barrier system animal facility. The animals were randomly divided into 3 groups: normal control group, DIO model control group, and DIO model compound 1 treatment group, with 6 animals per group. The treatment group received compound 1 orally at a dose of 100 mg/kg on the first day of high-fat diet (HFD) feeding, once daily for 32 consecutive days. Animal weights were measured weekly, and on day 33, they were fasted overnight but allowed access to water before an oral glucose tolerance test (OGTT).

[3] = Pharmacokinetic (PK) experiment, oral administration in rats; assay type: in vivo, Male SD rats; settings: 20 mg/kg
How it was run: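 Fasted male SD rats (180-250 g) received 20 mg/kg orally in 30% sulfobutylether-β-cyclodextrin. Tail-vein blood sampled 15 min to 24 h post-dose into K2-EDTA; plasma protein-precipitated with acetonitrile containing internal standard and analysed by LC-MS/MS.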

[4] = molecular target: recombinant CYP4A11 (rCYP4A11) (Homo sapiens (Human), UniProt Q02928); experiment: Inhibition of 20-HETE production by recombinant CYP4A11; assay type: biochemical; settings: read-out: rCYP4A11 (% inh @ 100 nM)
Description: (§2) Experimental principle: The inhibitory activity of 20-HETE production is evaluated by testing the inhibitory effects of the compound on human liver microsomes (HLM), rat liver microsomes (RLM), mouse liver microsomes (MLM), or […] CYP4 subtype enzymes (CYP4F2). This assay employs HLM, RLM, or MLM along with recombinant CYP4F2 (rCYP4F2) and recombinant CYP4A11 (rCYP4A11), which are […] CYP4 subtype enzymes, to detect the effects of the test compound at different concentrations on the metabolic rate of enzyme-specific substrates, to determine the inhibitory effects of the test compound on CYP enzymes in HLM, RLM, or MLM.
(§3) Experimental methods: Dissolve the test compound in DMSO, and subsequently dilute it with an acetonitrile and DMSO mixture (3:1). Add 2 μl of varying concentrations of the test compound and 100 μl of potassium phosphate buffer containing either liver microsomes or recombinant enzymes to a 96-well plate. After mixing well, transfer 30 μl to another well (in duplicate), add 15 μl of 400 μM substrate solution, and mix well again. Preheat at 37° C. for 10 minutes, and then add 15 μl of 6 mM NADPH and incubate at 37° C. for 25 minutes. After 25 minutes, add 160 μl of acetonitrile solution (containing 0.1 μg/ml internal standard) to stop the reaction. Mix well, centrifuge at 3500 g for 15 minutes, and then analyze the supernatant using LC-MS/MS.
(§4) Plot the compound concentration on the x-axis and the inhibition rate on the y-axis to draw the curve. Use GraphPad Prism 5 software to fit the curve and calculate the IC50. The formula is Y=Bottom+(Top−Bottom)/(1+10^((Log IC50−X)×HillSlope)). X represents the logarithmic concentration of the inhibitor, and Y represents the relative enzyme activity at a given inhibitor concentration (relative to the condition without the inhibitor).
(§5) Calculate the inhibition percentages at concentrations of 1000 nM, 500 nM, or 100 nM as well as the half-maximal inhibitory concentration (IC50) of the test compound from the above experiment.

[5] = system: CYP enzymes in rat liver microsomes (RLM); experiment: Inhibition of 20-HETE production in rat liver microsomes (RLM); assay type: biochemical
How it was run: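 Test compounds were dissolved in DMSO, diluted in acetonitrile/DMSO (3:1), and 2 μl was mixed with 100 μl potassium phosphate buffer containing rat liver microsomes in a 96-well plate. Duplicate 30 μl aliquots received 15 μl of 400 μM substrate, were preheated at 37° C. for 10 minutes, then started with 15 μl of 6 mM NADPH for 25 minutes. LC-MS/MS measured 20-HETE formation.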

[6] = system: CYP enzymes in mouse liver microsomes (MLM); experiment: Inhibition of 20-HETE production in mouse liver microsomes (MLM); assay type: biochemical
How it was run: as §1

[7] = molecular target: recombinant CYP4F2 (rCYP4F2) (Homo sapiens (Human), UniProt P78329); experiment: Inhibition of 20-HETE production by recombinant CYP4F2; assay type: biochemical
Description: as §2, §3, §4, §5

[8] = system: Cyp4a 14−/− hypertensive mice; settings: Cyp4a14−/− hypertensive mice; cited from earlier work
[9] = cited from earlier work
Cyp4a14−/− mice = settings: cited from earlier work
[10] = system: diet-induced obesity (DIO) mouse model; experiment: Experiment 4: weight loss of compound 2 compared with semaglutide in DIO mouse model; assay type: in vivo, Male C57BL/6J mice; settings: 30 nmol/kg subcutaneously once daily
Description: Experiment 4 was to compare the weight loss effects of compound 2 with that of semaglutide in a diet-induced obesity (DIO) mouse model. Male C57BL/6J mice were purchased from Vital River Laboratories (Shanghai) Co., Ltd. and housed in a barrier system animal facility. Animals were randomly divided into 4 groups: normal control group, DIO model control group, compound 2 treatment group, and semaglutide treatment group, with 6 animals per group. The model control group and treatment groups were first fed with high-fat diet (HFD) for 18 weeks, after which the treatment groups were administered with compound 2 or semaglutide, respectively. Compound 2 was administered orally at a dose of 30 mg/kg once daily for 14 consecutive weeks, while semaglutide was administered subcutaneously at a dose of 30 nmol/kg once daily. After 7 weeks of semaglutide treatment, the semaglutide treatment group was switched to compound 2 treatment for another 7 weeks.

[11] = cited from earlier work; remark: listed apart in the source
[12] = system: cyclooxygenase and lipoxygenase; settings: cited from earlier work
20-HETE = settings: read-out: inhibitory activity (inhibitor of 20-HETE); cited from earlier work

Sequence of recombinant CYP4F2 (rCYP4F2) (P78329 5-520): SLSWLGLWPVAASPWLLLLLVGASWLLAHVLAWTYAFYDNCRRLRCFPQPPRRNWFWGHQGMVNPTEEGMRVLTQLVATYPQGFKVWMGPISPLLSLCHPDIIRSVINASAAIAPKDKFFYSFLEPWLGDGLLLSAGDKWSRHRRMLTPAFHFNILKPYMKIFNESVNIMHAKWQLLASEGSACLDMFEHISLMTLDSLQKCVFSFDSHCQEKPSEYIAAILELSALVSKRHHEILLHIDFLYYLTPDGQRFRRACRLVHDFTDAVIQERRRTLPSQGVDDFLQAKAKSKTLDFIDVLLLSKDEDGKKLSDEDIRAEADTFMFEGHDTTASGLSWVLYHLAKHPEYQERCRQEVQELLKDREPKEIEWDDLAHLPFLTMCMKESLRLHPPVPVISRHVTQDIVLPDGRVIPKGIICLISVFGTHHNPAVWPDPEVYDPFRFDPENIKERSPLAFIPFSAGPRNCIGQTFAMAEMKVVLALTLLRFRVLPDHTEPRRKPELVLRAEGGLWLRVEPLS
Sequence of recombinant CYP4A11 (rCYP4A11) (Q02928 5-519): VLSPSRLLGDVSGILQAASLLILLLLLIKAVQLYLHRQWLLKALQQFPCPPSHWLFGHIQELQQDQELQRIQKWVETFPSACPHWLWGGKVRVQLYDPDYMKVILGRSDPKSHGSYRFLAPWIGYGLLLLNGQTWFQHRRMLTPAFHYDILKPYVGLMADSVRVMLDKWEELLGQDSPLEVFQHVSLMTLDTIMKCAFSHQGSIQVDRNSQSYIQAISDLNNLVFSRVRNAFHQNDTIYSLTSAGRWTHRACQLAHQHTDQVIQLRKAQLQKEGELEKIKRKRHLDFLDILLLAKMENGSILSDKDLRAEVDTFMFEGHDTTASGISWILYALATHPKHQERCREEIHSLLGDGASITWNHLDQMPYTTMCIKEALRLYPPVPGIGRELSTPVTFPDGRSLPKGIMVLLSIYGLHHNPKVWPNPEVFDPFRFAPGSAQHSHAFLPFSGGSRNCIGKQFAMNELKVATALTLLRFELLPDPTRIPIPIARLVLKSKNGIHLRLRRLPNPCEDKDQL

Compound: O=C1CCCN1CC1CCN(c2ccc(-c3cn[nH]c3)cc2)CC1 [Compound 1, 1-((1-(4-(1H-pyrazol-4-yl)phenyl)piperidin-4-yl)methyl)pyrrolidin-2-one]
- HLM (% inh @ 500 nM) [1]: 79.83%
- body weight ([2]; 100 mg/kg orally once daily for 32 days from first day of HFD): stabilized around the initial weight after 1 week and remained stable thereafter
- fasting blood glucose ([2]; 100 mg/kg orally once daily for 32 days, DIO mice): inhibit the increase in fasting blood glucose
- glucose metabolism (OGTT) ([2]; 100 mg/kg orally once daily for 32 days, OGTT day 33): enhance glucose metabolism
- absorption and blood exposure after oral administration (in words) [3]: well absorbed and exhibit high blood exposure
- AUC(0-inf) ([3]; male, SD, rat, plasma): 125 µg·h/mL
- Cmax ([3]; male, SD, rat, plasma): 9980 ng/mL
- Tmax ([3]; male, SD, rat, plasma): 1.5 h
- half-life ([3]; male, SD, rat, plasma): 7.23 h
- AUC(0-t) ([3]; male, SD, rat, plasma, read-out: AUC0-24): 113 µg·h/mL
- inhibition at 0.1 µM [4]: 35.4%
- IC50 [5]: 224 nM
- RLM (% inh @ 500 nM) ([5]; 500 nM): 54.99%
- IC50 [6]: 1220 nM
- IC50 [7]: 24 nM
- inhibition at 0.1 µM ([7]; read-out: rCYP4F2 (% inh @ 100 nM)): 59.5%

Compound: COCCOCCOCCOCCOCCOCCOC(=O)CCCC/C=C\CCCCCCC/C=C\CCCCO [Compound 20-SOLA]
- blood pressure [8]: restore blood pressure to normal
- solubility [9]: more water-soluble
- hyperglycemia and hyperinsulinemia (Cyp4a14−/− mice): improve hyperglycemia and hyperinsulinemia
- weight gain induced by a high-fat diet (Cyp4a14−/− mice): reduce the weight gain

Compound: semaglutide [reference compound]
- maximum weight-loss effect, decrease compared to the pre-treatment weight ([10]; after 2 weeks): approximately 20%
- food intake, fraction of the model control group ([10]; first 2 weeks): ⅓ to ½

Compound: CCCCc1ccc(N=CNO)c(C)c1 [HET0016]
- solubility [9]: poor
- half-life [11]: short
- effect on the activity of cyclooxygenase and lipoxygenase [12]: no effect
- IC50 (20-HETE): 8.9 nM
